For this assay, the system named is KB. In words: Cytotoxicity against human KB cells. Format: functional. Conditions: read-out: ED50 (the source's name).

The structures appear in SMILES notation. In brackets after ≈: the same amount, converted by molar mass.

Take `CC(C)=CC1C[C@@H]([C@@H]2CC=C3[C@]4(C)C(=O)C[C@@H]5[C@](C)(C=CC(=O)[C@]5(C)CO)[C@H]4CC[C@]32C)CO1` (stereo partly specified) [DYSORONE E]: the EC50 turned out to be 3.5 µg/mL (≈ 7.5 µM).
